# Experimental data from US7320785B2, “Compositions and methods for modulation of DARPP-32 phosphorylation” (The Rockefeller University, priority 2001, dated 2008).
# Read-outs that look alike come from different tables or passages of the source. Marks after values point to notes of the source that are not given here.
# Experiments:
# DARPP-32 [1] = experiment: DARPP-32 phosphorylation in vivo in mice after i.p. injection, immunoblotting; parameters: species or system mouse; details: for phospho-Thr75 DARPP-32 / phospho-Thr34 DARPP-32: prefrontal cortex
# c-fos mRNA = c-fos mRNA expression by in situ hybridization in WT and DARPP-32 KO mice; format: in vivo, mouse; details: 20 min postinjection
# Experimental: Twenty minutes after the injections, the animals were killed by decapitation and their brains frozen at −80° C. Coronal sections were then made and processed for in situ hybridization experiments with a probe against c-fos mRNA. The expression of c-fos mRNA is widely used as a marker for the biochemical activity of neurons. Manipulations of the serotonergic system, by PCA (4 mg/kg) and 5-HTP (50 mg/kg+carbidopa 50 mg/kg), increased c-fos mRNA expression in several brain regions, including prefrontal cortex and striatum in DARPP-32 wild-type mice.
# WT and DARPP-32 KO mice [2] = experiment: Locomotor activity measurements in activity monitors; format: in vivo, mouse
# Experimental: Locomotor activity of WT and DARPP-32 KO mice was measured in activity monitors (43×44×45 cm) equipped with both horizontal and vertical sensors (Opto-Varimex, Columbus Instruments, Columbus, Ohio). Mice were acclimated to the boxes for 1 h, […] before the day of the experiment. The day of the experiment, mice were placed in the boxes for 20 min (habituation period) before drug administration. […] Locomotor activity parameters (distance traveled and stereotypic movements) were quantified by using the AutoTrack System (Columbus Instruments).
# DARPP-32 [3] = experiment: Total DARPP-32 protein levels after chronic treatment with fluoxetine; format: in vivo, mouse; details: chronic fluoxetine 10 mg/kg i.p., compared with chronic saline
# Experimental: (§1) In all experiments, hippocampi, prefrontal cortices, and striata were rapidly dissected out and stored at −80° C. until assayed.
# inhibitor-1 = experiment: Total inhibitor-1 protein levels after chronic treatment with fluoxetine; format: in vivo, mouse; details: chronic fluoxetine 10 mg/kg i.p.
# Experimental: as §1
# DARPP-32 mRNA = DARPP-32 mRNA levels by in situ hybridization after chronic fluoxetine; format: in vivo, mouse; details: fluoxetine 10 mg/kg i.p. once daily for 19 days
# Experimental: (§2) Brains were rapidly dissected out and frozen at −80° C. Cryostat sections (12-μm) were prepared and hybridized with [α-^35S]UTP-labeled riboprobes prepared by in vitro transcription from cDNA clones corresponding to full-length clones of DARPP-32 or inhibitor-1 as described (21). After hybridization, the sections were exposed to Biomax MR film (Kodak) for 2 14 days and analyzed with a Microcomputer Imaging Device system (M4, Imaging Research, St. Catherine's, ON, Canada).
# inhibitor-1 mRNA = experiment: Inhibitor-1 mRNA levels by in situ hybridization after chronic fluoxetine; format: in vivo, mouse; details: hippocampus, prefrontal cortex, striatum; fluoxetine 10 mg/kg i.p. once daily for 19 days
# Experimental: as §2
# WT and DARPP-32 KO mice [4] = experiment: Tail-suspension test for antidepressant efficacy; format: in vivo, mouse; details: fluoxetine 5 or 10 mg/kg i.p. 30 min before the trial
# DARPP-32 [5] = experiment: DARPP-32 phosphorylation in mouse brain slices, immunoblotting with phosphorylation state-specific antibodies; details: for EC50 / activity at 100 µM: Mus musculus
# [6] = forced-swim test and tail suspension test; cited from earlier work
# [7] = system: GluR1 subunit of the AMPA receptor; experiment: Phosphorylation of the GluR1 subunit of the AMPA receptor in slices from WT and DARPP-32 KO mice; format: cell-based, mouse
# Experimental: In order to evaluate the involvement of DARPP-32 in the activity of serotonin, mice that lack DARPP-32 (DARPP-32 knockout (KO) mice) were used. In one set of experiments, striatal slices were prepared from normal mice (DARPP-32 wild-type) and DARPP-32 knockout mice and incubated with serotonin for 5 minutes. Experiments were then carried out to determine the levels of phospho-Ser845 of the GluR1 subunit of the AMPA (AMPA, α-amino-3-hydroxy-5-methyl-4-isoxazolepropionic acid) receptor.
# DARPP-32 [8] = experiment: Thr34-DARPP-32 phosphorylation in striatal slices from unilaterally 6-OHDA-lesioned rats; format: cell-based, rat
# Experimental: Further experiments were conducted that provide evidence that activation of a serotonergic intracellular signaling pathway and of DARPP-32 has applicability in the treatment of Parkinson's disease. In these experiment, rats were unilaterally (i.e. in one hemisphere) injected with 6-OHDA (6-hydroxydopamine; a dopaminergic neurotoxin) according to standard methods. The 6-OHDA is selectively taken up by dopaminergic neurons and kills the neurons. Such 6-OHDA-lesioned animals are considered an animal model of Parkinson's disease. The 6-OHDA-lesioned animals were sacrificed, striatal slices were prepared, as described hereinabove, from the non-lesioned (i.e., “normal”) and the 6-OHDA-lesioned (i.e., “dopamine-depleted”) hemispheres, and used for striatal slice experiments according to the methods described hereinabove. 5-HT or saline (control) was administered according to the methods described hereinabove. […] The interpretation of these experiments is that 5-HT activates DARPP-32 phosphorylation via a mechanism that is largely independent of enhanced dopaminergic neurotransmission. Agents that enhance serotonergic neurotransmission, and that are stimulatory, can thus exert anti-Parkinsonian effects independent of dopamine, and can be used in the treatment of Parkinson's disease.
# depressed patients = details: several clinical trials; cited from earlier work
# [9] = 5-HTP 50 mg/kg + carbidopa 50 mg/kg
# [10] = Hippocampus, 5 mg/kg i.p., 15 min
# [11] = Hippocampus, 10 mg/kg i.p., 15 min
# [12] = Hippocampus, 20 mg/kg i.p., 15 min
# [13] = Striatum, 10 mg/kg i.p., 15 min
# [14] = Striatum, 20 mg/kg i.p., 15 min
# [15] = PCA 4 mg/kg i.p., 15 min, n=5 mice
# [16] = striatum, 4 mg/kg i.p., 15 min after injection
# [17] = slices from hippocampus, frontal cortex, striatum, WT mice, serotonin 100 μM, 10 min
# [18] = striatal slices, serotonin for 5 minutes
# [19] = nucleus accumbens slices, serotonin 100 μM, 2 min, n=12
structure (smiles),measurement,setting,value
"N[C@@H](Cc1c[nH]c2ccc(O)cc12)C(=O)O [5-HTP, 5-hydroxytryptophan]",phospho-Thr75 DARPP-32,"DARPP-32 [1]; 5-HTP 50 mg/kg i.p. after carbidopa, 15 min, n=5",74±8.0%
same,phospho-Thr34 DARPP-32,"DARPP-32 [1]; 5-HTP 50 mg/kg i.p. after carbidopa, 15 min, n=5 mice",144±8.3%
same,"c-fos mRNA Levels in Striatum, DARPP-32 Knockout",c-fos mRNA; [9],0.092(0.009)#*
same,"c-fos mRNA Levels in Striatum, DARPP-32 Wild-type",c-fos mRNA; [9],0.195(0.017)*
same,locomotor activity and stereotypic behavior,"WT and DARPP-32 KO mice [2]; DARPP-32 KO mice, 5-HTP 50 mg/kg i.p. 30 min after carbidopa 50 mg/kg",abolished
same,locomotor activity and stereotypic behavior,"WT and DARPP-32 KO mice [2]; WT mice, 5-HTP 50 mg/kg i.p. 30 min after carbidopa 50 mg/kg",robust increase
CNCCC(Oc1ccc(C(F)(F)F)cc1)c1ccccc1 (stereo not shown) [Fluoxetine],Percent Phospho-Thr34,"DARPP-32 [1]; Cortex, 5 mg/kg i.p., 15 min",144(7.4)* Percent
same,Percent Phospho-Thr75,"DARPP-32 [1]; Cortex, 5 mg/kg i.p., 15 min",86(7.0)* Percent
same,Percent Phospho-Thr34,"DARPP-32 [1]; Cortex, 10 mg/kg i.p., 15 min",140(4.7)* Percent
same,Percent Phospho-Thr75,"DARPP-32 [1]; Cortex, 10 mg/kg i.p., 15 min",85(4.2)* Percent
same,Percent Phospho-Thr75,"DARPP-32 [1]; Cortex, 20 mg/kg i.p., 15 min",82(7.3)* Percent
same,Percent Phospho-Thr34,DARPP-32 [1]; [10],150(3.8)* Percent
same,Percent Phospho-Thr75,DARPP-32 [1]; [10],84(6.4)* Percent
same,Percent Phospho-Thr34,DARPP-32 [1]; [11],142(6.2)* Percent
same,Percent Phospho-Thr75,DARPP-32 [1]; [11],87(3.0)* Percent
same,Percent Phospho-Thr34,DARPP-32 [1]; [12],141(11.6)* Percent
same,Percent Phospho-Thr75,DARPP-32 [1]; [12],88(3.0)* Percent
same,Percent Phospho-Ser137,"DARPP-32 [1]; Striatum, 5 mg/kg i.p., 15 min",120(8.7) Percent
same,Percent Phospho-Thr34,"DARPP-32 [1]; Striatum, 5 mg/kg i.p., 15 min",123(5.0)* Percent
same,Percent Phospho-Thr75,"DARPP-32 [1]; Striatum, 5 mg/kg i.p., 15 min",95(3.1) Percent
same,Percent Phospho-Ser102,DARPP-32 [1]; [13],108(7.5) Percent
same,Percent Phospho-Thr34,DARPP-32 [1]; [13],155.2(12.9)* Percent
same,Percent Phospho-Thr75,DARPP-32 [1]; [13],84.6(8.9)* Percent
same,Percent Phospho-Thr34,DARPP-32 [1]; [14],141(7.6)* Percent
same,Percent Phospho-Thr75,DARPP-32 [1]; [14],92(2.1)* Percent
same,"fraction of DARPP-32 phosphorylated at Thr-34, Thr-75, or Ser-137","DARPP-32 [1]; chronic fluoxetine 10 mg/kg 19 days, challenged with saline, versus chronic saline/saline, normalized to total DARPP-32",no differences
same,ability of a challenge to increase phosphorylation at Ser-137,"DARPP-32 [1]; striatum, chronic fluoxetine 10 mg/kg 19 days, challenge 10 mg/kg",abolished
same,total DARPP-32 protein,DARPP-32 [3]; hippocampus,121%
same,total DARPP-32 protein,DARPP-32 [3]; prefrontal cortex,123%
same,total DARPP-32 protein,DARPP-32 [3]; striatum,102%
same,total inhibitor-1 protein,inhibitor-1; hippocampus,98%
same,total inhibitor-1 protein,inhibitor-1; prefrontal cortex,102%
same,total inhibitor-1 protein,inhibitor-1; striatum,97%
same,DARPP-32 mRNA expression,DARPP-32 mRNA; hippocampus and frontal cortex,increased
same,DARPP-32 mRNA expression,DARPP-32 mRNA; striatum,not in striatum
same,inhibitor-1 mRNA expression,inhibitor-1 mRNA,no effects
same,effect on immobility in the tail-suspension test,WT and DARPP-32 KO mice [4]; DARPP-32 KO mice,strongly attenuated
same,immobility in the tail-suspension test,"WT and DARPP-32 KO mice [4]; WT mice, 5 min trial",decreased immobility
same,locomotion,WT and DARPP-32 KO mice [2]; fluoxetine at the doses examined (5 or 10 mg/kg),not significantly affected
same,effect of fluoxetine alone on DARPP-32 phosphorylation,"DARPP-32 [5]; slices from hippocampus, prefrontal cortex, striatum, fluoxetine 10 M printed",no effect
CC(CNS(=O)(=O)C(C)C)c1ccc(-c2ccsc2)cc1 (stereo not shown) [LY392098],antidepressant-like actions,[6],robust antidepressant-like actions
CC(CNS(=O)(=O)C(C)C)c1ccc(-c2ccc(C#N)cc2)cc1 (stereo not shown) [LY404187],antidepressant-like actions,[6],robust antidepressant-like actions
"CC(N)Cc1ccc(Cl)cc1 (stereo not shown) [PCA, para-chloroamphetamine]",phospho-Thr34 DARPP-32,DARPP-32 [1]; [15],147±4.8%
same,phospho-Thr75 DARPP-32,DARPP-32 [1]; [15],79±3.8%
same,Percent Phospho-Ser137,DARPP-32 [1]; [16],128(7.1)* Percent
same,Percent Phospho-Thr34,DARPP-32 [1]; [16],171(9.1)* Percent
same,Percent Phospho-Thr75,DARPP-32 [1]; [16],80.1(3.4)* Percent
same,"c-fos mRNA Levels in Striatum, DARPP-32 Knockout",c-fos mRNA; PCA 4 mg/kg i.p.,0.084(0.010)#*
same,"c-fos mRNA Levels in Striatum, DARPP-32 Wild-type",c-fos mRNA; PCA 4 mg/kg i.p.,0.181(0.021)*
same,locomotor activity and stereotypic behavior,"WT and DARPP-32 KO mice [2]; DARPP-32 KO mice, PCA 4 mg/kg i.p.",abolished
same,locomotor activity and stereotypic behavior,"WT and DARPP-32 KO mice [2]; WT mice, PCA 4 mg/kg i.p., 50 min",robust increase
NCCc1c[nH]c2ccc(O)cc12 [Serotonin],"increased phosphorylation at Ser-845 GluR1, DARPP-32 KO versus WT","[7]; slices from DARPP-32 KO mice, serotonin 100 μM",significantly reduced
same,phosphorylation at Ser-831 GluR1,[7]; [17],increased
same,phosphorylation at Ser-845 GluR1,[7]; [17],increased
same,"Ser845-GluR1 Levels, DARPP-32 Knockout",[7]; [18],111(14.9)# percentage of control
same,"Ser845-GluR1 Levels, DARPP-32 Wild-type",[7]; [18],199(22.7)* percentage of control
same,Percent Phospho-Thr34,DARPP-32 [8]; 6-OHDA lesioned hemisphere,369(67.2)* Percent
same,Percent Phospho-Thr34,DARPP-32 [8]; Intact hemisphere,306(50.7) Percent
same,EC50,"DARPP-32 [5]; 2 min, read-out: EC50 for effect on DARPP-32 phosphorylation at Ser137",37.6 µM
same,EC50,"DARPP-32 [5]; 2 min, read-out: EC50 for effect on DARPP-32 phosphorylation at Thr34",13.5 µM
same,activity at 100 µM,"DARPP-32 [5]; 2 min, read-out: Percent Phospho-Ser137",141%
same,activity at 100 µM,"DARPP-32 [5]; 2 min, read-out: Percent Phospho-Thr34",342%
same,EC50,"DARPP-32 [5]; 10 min, read-out: EC50 for effect on DARPP-32 phosphorylation at Thr75",29.6 µM
same,activity at 100 µM,"DARPP-32 [5]; 10 min, read-out: Percent Phospho-Thr75",76%
same,phosphorylation at Ser137,DARPP-32 [5]; [19],143±7%
same,phosphorylation at Thr34,DARPP-32 [5]; [19],307±25%
same,phosphorylation at Thr75,"DARPP-32 [5]; nucleus accumbens slices, serotonin, 10 min, n=12",75±6%
same,phospho-Thr34 DARPP-32,"DARPP-32 [5]; prefrontal cortex slices, 2 min of incubation, n=6",185±15%
same,phospho-Thr75 DARPP-32,"DARPP-32 [5]; prefrontal cortex slices, 10 min of incubation, n=6",85±3%
COc1ccc(C2CNC(=O)C2)cc1OC1CCCC1 (stereo not shown) [rolipram],anti-depressant efficacy,depressed patients,has anti-depressant efficacy
